# Results as given in patent US11761045B2, “Splice variants associated with neomorphic SF3B1 mutants” (Eisai R&D Management Co., Ltd., priority 2015, dated 2023).
# Assays:
# [1] = molecular target: T1, SF3B1^WT (Homo sapiens, UniProt O75533+Q7RTV0); assay: Competitive binding assay (SPA, 3H-probe molecule) with Flag-tag SF3B1 from 293F cells; design: expressed in transfected cells; host or cells: 293F cells (Life Technologies), transient transfection with pFLAG-CMV-2-SF3B1; settings: one nM 3H-probe; Flag-tag SF3B1^WT from transfected 293F cells; read-out: IC50, competitive inhibition of binding of the 3H-probe molecule
# Protocol: The ability of E7107 to bind both SF3B1^WT and SF3B1^K700E proteins was evaluated in a competitive binding assay using Flag-tag SF3B1 proteins immunoprecipitated with anti-Flag antibody from transiently transfected 293F cells. Batch immobilization of antibody to beads was prepared by incubating 80 μg of anti-SF3B1 antibody (MBL International) and 24 mg anti-mouse PVT SPA scintillation beads (PerkinElmer) for 30 minutes. After centrifugation, the antibody-bead mixture was resuspended in PBS supplemented with PhosSTOP phosphatase inhibitor cocktail (Roche) and complete ULTRA protease inhibitor cocktail (Roche). Nuclear extracts were prepared by diluting 40 mg into a total volume of 16 mL PBS with phosphatase and protease inhibitors, and the mixture was centrifuged. The supernatant was transferred into a clean tube, and the antibody-bead mixture was added and incubated for two hours. The beads were collected by centrifuging, washed twice with PBS+0.1% Triton X-100, and resuspended with 4.8 mL of PBS. 100 μL binding reactions were prepared using slurry and varying concentrations of E7107. […] The mixture was incubated at room temperature for 15 minutes, and luminescence signals were read using a MicroBeta2 Plate Counter (PerkinElmer).
# [2] = molecular target: SF3B1^K700E (Homo sapiens, UniProt O75533+Q7RTV0, K700E); assay: In vitro splicing assay (IVS), Ad2 pre-mRNA substrate, nuclear extracts; assay type: biochemical; design: expressed in transfected cells; host or cells: nuclear extract of 293F cells transfected with pFLAG-CMV-2-SF3B1 K700E (the same assay was also run with Nalm-6 SF3B1 K700E nuclear extract); settings: nuclear extracts from Nalm-6 SF3B1^K700E cells or 293F cells expressing Flag-tag SF3B1^K700E
# Protocol: (§1) E7107 is a small-molecule compound that inhibits splicing by targeting the U2 snRNP-associated complex SF3B (Kotake, Y. et al. “Splicing factor SF3b as a target of the antitumor natural product pladienolide.” Nat Chem Biol 3, 570-575, doi:10.1038/nchembio.2007.16 [2007]).
# (§2) Nuclear extracts were prepared from 293F cells transfected with pFLAG-CMV-2-SF3B1 plasmids, or from isogenic Nalm-6 cells (SBH Sciences). The plasmids were generated by cloning the mxSF3B1 gene into the HindIII and KpnI sites of pFLAG-CMV2 (Sigma), and the mutations mxSF3B1^K700E, mxsF3B1^R1074H and mxSF3B1^K700E-R1074H were introduced using […]. Cell pellets were resuspended in hypotonic buffer (10 mM HEPES pH 7.9, 1.5 mM MgCl2, 10 mM KCl, 0.2 mM PMSF, and 0.5 mM DTT; for Nalm-6 cells, 40 mM KCl was used). The suspension was brought up to a total of five packed cell volumes (PCV). After centrifugation, the supernatant was discarded, and the cells were brought up to 3 PCV with hypotonic buffer, and incubated on ice for 10 minutes. Cells were lysed using a dounce homogenizer and then centrifuged. […] Protein concentration was determined using NanoDrop 8000 UV-Vis spectrophotometer (Thermo Scientific). […]
# [3] = molecular target: T1, SF3B1^WT; assay: as above; assay type: biochemical; design: expressed in transfected cells; host or cells: nuclear extract of 293F cells transfected with pFLAG-CMV-2-SF3B1 (the same assay was also run with Nalm-6 nuclear extract); settings: nuclear extracts from Nalm-6 (SF3B1^WT) cells or 293F cells expressing Flag-tag SF3B1^WT
# Protocol: as §1, §2
# T1 sequence (Q15393 whole entry): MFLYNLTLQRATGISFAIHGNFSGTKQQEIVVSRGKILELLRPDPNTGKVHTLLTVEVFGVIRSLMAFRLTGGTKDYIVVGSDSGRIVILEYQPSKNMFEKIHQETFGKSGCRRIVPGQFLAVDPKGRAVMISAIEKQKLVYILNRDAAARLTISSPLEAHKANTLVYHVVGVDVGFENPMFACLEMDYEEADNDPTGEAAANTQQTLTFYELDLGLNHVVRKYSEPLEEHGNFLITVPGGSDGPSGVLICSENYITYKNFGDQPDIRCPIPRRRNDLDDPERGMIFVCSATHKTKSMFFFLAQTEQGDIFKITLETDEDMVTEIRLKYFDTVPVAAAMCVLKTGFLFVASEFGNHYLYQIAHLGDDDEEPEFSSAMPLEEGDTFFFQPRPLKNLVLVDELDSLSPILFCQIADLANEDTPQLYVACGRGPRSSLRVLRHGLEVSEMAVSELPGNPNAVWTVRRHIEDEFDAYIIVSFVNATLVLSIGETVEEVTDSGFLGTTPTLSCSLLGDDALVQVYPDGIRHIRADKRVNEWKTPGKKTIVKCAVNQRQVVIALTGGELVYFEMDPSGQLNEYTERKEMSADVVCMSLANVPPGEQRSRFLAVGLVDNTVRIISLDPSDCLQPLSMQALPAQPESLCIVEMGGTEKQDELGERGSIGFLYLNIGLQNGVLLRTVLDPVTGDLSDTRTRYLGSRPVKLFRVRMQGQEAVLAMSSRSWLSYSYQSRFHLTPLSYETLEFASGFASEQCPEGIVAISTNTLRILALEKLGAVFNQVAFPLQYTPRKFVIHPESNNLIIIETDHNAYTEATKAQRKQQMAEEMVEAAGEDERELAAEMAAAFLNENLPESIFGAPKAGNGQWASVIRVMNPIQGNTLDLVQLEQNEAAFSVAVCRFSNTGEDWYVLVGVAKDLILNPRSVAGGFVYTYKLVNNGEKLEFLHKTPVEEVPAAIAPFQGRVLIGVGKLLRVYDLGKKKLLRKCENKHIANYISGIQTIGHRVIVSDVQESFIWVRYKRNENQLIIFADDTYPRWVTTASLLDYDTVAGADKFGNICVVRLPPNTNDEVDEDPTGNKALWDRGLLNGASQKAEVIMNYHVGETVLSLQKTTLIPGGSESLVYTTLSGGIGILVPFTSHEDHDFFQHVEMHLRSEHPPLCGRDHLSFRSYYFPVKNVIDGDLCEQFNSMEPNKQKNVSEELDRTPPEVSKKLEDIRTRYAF
# T1 sequence (Q9BWJ5 whole entry, further chain): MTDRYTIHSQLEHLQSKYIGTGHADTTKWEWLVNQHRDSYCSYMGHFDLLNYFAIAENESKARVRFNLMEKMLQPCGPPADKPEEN
# T1 sequence (Q7RTV0 whole entry): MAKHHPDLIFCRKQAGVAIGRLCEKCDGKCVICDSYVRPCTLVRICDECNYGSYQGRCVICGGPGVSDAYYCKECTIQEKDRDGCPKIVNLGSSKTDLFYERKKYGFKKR
# T1 sequence (O75533 whole entry): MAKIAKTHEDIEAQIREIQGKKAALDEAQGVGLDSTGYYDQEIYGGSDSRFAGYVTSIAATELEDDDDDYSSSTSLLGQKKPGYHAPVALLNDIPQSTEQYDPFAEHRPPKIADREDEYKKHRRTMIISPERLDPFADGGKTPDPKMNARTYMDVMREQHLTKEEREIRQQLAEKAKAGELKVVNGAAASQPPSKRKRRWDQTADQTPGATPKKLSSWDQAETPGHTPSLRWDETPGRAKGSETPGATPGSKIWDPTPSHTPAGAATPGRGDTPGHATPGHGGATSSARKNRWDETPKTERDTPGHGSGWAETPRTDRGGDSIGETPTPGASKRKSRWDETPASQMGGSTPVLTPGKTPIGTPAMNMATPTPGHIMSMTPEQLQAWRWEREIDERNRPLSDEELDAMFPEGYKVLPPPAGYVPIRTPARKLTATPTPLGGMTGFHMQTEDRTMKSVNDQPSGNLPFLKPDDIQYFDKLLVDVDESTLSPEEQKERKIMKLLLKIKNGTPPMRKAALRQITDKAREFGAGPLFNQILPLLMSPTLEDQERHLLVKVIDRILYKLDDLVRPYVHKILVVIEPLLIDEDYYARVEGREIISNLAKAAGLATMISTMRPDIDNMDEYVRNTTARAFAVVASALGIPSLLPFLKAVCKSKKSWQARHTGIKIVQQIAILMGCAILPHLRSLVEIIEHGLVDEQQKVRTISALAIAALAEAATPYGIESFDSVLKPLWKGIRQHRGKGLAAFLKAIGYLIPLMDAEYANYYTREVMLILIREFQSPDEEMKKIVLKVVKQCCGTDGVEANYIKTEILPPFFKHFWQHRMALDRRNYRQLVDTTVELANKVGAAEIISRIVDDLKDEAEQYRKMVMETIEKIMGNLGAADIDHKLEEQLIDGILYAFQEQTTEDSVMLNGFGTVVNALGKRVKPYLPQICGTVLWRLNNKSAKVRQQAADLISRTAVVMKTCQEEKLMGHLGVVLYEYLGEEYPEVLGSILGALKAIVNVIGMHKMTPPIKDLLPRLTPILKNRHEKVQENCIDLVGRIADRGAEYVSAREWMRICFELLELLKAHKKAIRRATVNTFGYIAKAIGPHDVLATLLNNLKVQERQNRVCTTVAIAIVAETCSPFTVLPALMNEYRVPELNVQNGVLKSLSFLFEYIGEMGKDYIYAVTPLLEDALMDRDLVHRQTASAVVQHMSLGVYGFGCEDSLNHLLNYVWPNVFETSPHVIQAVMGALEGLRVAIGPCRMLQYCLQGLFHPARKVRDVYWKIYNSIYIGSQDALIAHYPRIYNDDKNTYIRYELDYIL
smiles,measurement,setting,value
CC[C@H](O)[C@@H](C)[C@H]1O[C@@H]1C[C@@](C)(O)/C=C/C=C(\C)[C@H]1OC(=O)C[C@H](O)CC[C@@](C)(O)[C@@H](OC(=O)N2CCN(C3CCCCCC3)CC2)/C=C/[C@@H]1C [Compound E7107],IC50,[1],13 nM
same,inhibition of splicing of Ad2 pre-mRNA in nuclear extracts,[2],able to inhibit splicing
same,inhibition of splicing of Ad2 pre-mRNA in nuclear extracts,[3],able to inhibit splicing
